The test deals with T1, PTP1B (Homo sapiens, UniProt P18031).
T1 construct: gene PTPN1; recombinant PTP1B protein
T1 sequence (P18031 1-435): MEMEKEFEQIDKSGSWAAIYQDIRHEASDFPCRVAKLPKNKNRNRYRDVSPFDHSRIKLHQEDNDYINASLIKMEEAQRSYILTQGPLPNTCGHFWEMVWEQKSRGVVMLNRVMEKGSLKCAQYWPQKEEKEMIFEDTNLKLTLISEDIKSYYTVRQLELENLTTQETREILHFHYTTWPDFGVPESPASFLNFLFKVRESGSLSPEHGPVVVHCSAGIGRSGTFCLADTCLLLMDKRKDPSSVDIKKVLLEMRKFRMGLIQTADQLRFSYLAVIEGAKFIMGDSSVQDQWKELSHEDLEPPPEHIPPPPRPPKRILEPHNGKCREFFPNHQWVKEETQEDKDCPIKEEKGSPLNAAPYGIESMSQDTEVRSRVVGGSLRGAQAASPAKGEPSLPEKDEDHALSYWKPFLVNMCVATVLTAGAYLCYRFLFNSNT
The test is described as follows: p-nitrophenyl phosphate phosphatase assay with recombinant PTP1B; supported by CETSA in HCT116 lysates (ΔTm -4.[…] °C). It counts as biochemical.

Consider `CCCCCC[n+]1ccn2[c]1[Pt-2]1([c]3ccccc3-c3cccc[n+]31)[c]1n(cc[n+]1CCCCCC)CCC2` [Pt-ER, PlatinER], for which the IC50 was determined as 20.6 ± 1.8 µM.

These data come from publication PMC12833861, “Organoplatinum(II) Type II Immunogenic Cell Death Inducers Target Protein Tyrosine Phosphatase 1B to Drive Immunogenicity” (Journal of the American Chemical Society, 2025).
